Paper PMC8151276, “An Integrated Approach toward NanoBRET Tracers for Analysis of GPCR Ligand Engagement” (Molecules, 2021)

What was measured:
Assay type in all cases: binding
[1] = molecular target: T1, ADRB1 (Homo sapiens, UniProt P08588); assay: NanoBRET screen HiBiT-ADRB1 in HEK293
T1 construct: purchased Promega (in-house HiBiT-GPCR construct library, NanoBRET)

[2] = molecular target: T2, AVPR1B (Homo sapiens, UniProt P47901); assay: NanoBRET screen HiBiT-AVPR1B in HEK293
T2 construct: purchased Promega (in-house HiBiT-GPCR construct library, NanoBRET)
T2 sequence (P47901 1-424): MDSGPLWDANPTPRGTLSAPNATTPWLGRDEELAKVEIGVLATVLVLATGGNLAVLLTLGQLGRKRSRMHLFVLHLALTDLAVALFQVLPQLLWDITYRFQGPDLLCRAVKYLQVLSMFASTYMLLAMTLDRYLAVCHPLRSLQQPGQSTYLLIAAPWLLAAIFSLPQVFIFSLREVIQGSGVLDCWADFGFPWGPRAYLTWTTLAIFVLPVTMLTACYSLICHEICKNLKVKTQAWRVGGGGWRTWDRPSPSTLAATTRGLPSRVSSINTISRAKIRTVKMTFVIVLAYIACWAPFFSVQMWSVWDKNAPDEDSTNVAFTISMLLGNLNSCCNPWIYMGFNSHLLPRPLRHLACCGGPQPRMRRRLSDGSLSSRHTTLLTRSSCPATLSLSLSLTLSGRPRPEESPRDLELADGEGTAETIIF
Experimental: (§1) Each tracer candidate was screened across the entire library of HiBiT-GPCR constructs using NanoBRET as the detection modality. As depicted in Figure 4A, the specificity of interactions was evaluated through decrease in BRET due to competitive displacement of a bound tracer by excess parental compound. Each tracer was analyzed for binding to each HiBiT-GPCR fusion in the absence and in the presence of competing parental compound. Briefly, HEK293 cells were transfected with HiBiT-GPCR constructs diluted into promoterless DNA to reduce expression and maximize translocation to the cell surface. Each tracer candidate was then screened at concentrations of 1 μM and 0.1 μM across cells expressing these fusions. Cells were treated for 1.5 h with tracer either alone or in the presence of 20 μM competing parental compound (i.e., control). BRET was measured upon addition of purified LgBiT and subsequent complementation with HiBiT genetically fused to a GPCR. The specificity of interactions was assessed through a decrease in BRET signal due to competitive displacement of the bound tracer. To further gauge the robustness of these interactions, the fold response over the control (i.e., BRETtracer/BRETcontrol) was calculated. We chose a 1.5-fold response, which translates to ≥7-fold signal over noise as the minimal threshold required to score an interaction as positive. […]. Below we highlight the screening results obtained for our exemplary fluorescent tracers based on Clozapine, Amitriptyline and AZD1283.
(§2) HiBiT-GPCR DNA constructs were diluted in 10 mM Tris pH 8 to a final concentration of 0.01 μg/μL, arrayed in 96-well plates and stored at −20 °C. For transfection, HEK293 cells were suspended in Opti-MEM (without phenol red) supplemented with 2% fetal bovine serum (Seradigm) and 100 units/mL penicillin–streptomycin (Gibco) at a final concentration of 220,000 cells/mL and dispensed into white 96-well plates at 90 μL/well. Subsequent transfections and screens were carried using an Agilent Bravo Automated Liquid Handling Platform. First, the 96-well HiBiT DNA arrays were diluted 25-fold in Opti-MEM (without serum or phenol red) to a final concentration of 0.0004 μg/μL and 20 μL of the diluted DNAs were transferred into new 96-well plates. Next, promoterless carrier DNA (1 μg/μL) was diluted 25-fold (0.04 μg/μL) and then dispensed into the diluted arrays at 20 μL/well. Following brief mixing, Viafect transfection reagent (Promega) diluted 16-fold into Opti-MEM was dispensed into the plates at 40 μL/well. After mixing by pipetting, plates were incubated for 10 min on the pipetting station deck. The DNA-transfection reagent complexes were then added to plates containing cells. To facilitate the screen, 10 μL of DNA-transfection reagent complexes were added in duplicates to the top 4 and bottom 4 rows, resulting in two identical 48-well arrays per plate. Plates with transfected cells were incubated for 18–20 h at 37 °C/5% CO2. A screen of each tracer across the entire library using two different concentrations requires duplicate plates of transfected cells. Depending on the number of tracers being screened, transfections can be scaled up using the same ratios. The next day, for each tracer, four 20× screening solutions in tracer dilution buffer (Promega) were prepared: two duplicates at final concentration of 20 μM and two duplicates at a final concentration of 2 μM. A competing unmodified compound was added to one of each duplicate at a final concentration of 400 μM. The four resulting solutions were diluted 4-fold in Opti-MEM without serum or phenol red to generate 5× solutions (5 µM and 0.5 µM tracer +/− 100 μM competing compound). To screen the library, a BioTek MultiFlo FX liquid dispenser was used to dispense 22.5 µL of tracer solution to the top 4 rows and 22.5 µL tracer + competing compound solution to the 4 bottom rows. Plates were briefly mixed on an orbital shaker and incubated for 1.5 h at room temperature. […]

[3] = molecular target: T3, NMUR1 (Homo sapiens, UniProt Q9HB89); assay: NanoBRET screen HiBiT-NMUR1 in HEK293
T3 construct: purchased Promega (in-house HiBiT-GPCR construct library, NanoBRET)
T3 sequence (Q9HB89 1-426): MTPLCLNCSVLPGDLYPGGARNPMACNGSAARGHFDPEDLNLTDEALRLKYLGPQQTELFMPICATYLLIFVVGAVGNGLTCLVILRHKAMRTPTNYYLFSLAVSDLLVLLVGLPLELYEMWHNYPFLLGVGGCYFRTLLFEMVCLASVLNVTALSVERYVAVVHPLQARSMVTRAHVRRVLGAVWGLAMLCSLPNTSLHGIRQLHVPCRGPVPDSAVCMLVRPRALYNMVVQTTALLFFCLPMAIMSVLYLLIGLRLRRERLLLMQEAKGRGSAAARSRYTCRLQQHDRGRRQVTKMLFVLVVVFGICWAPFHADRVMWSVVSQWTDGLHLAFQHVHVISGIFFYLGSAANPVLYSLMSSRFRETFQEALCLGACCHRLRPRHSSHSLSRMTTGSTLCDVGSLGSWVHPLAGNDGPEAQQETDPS
Experimental: as §1, §2

[4] = molecular target: T4, OPRK1 (Homo sapiens, UniProt P41145); assay: NanoBRET screen HiBiT-OPRK1 in HEK293
T4 construct: purchased Promega (in-house HiBiT-GPCR construct library, NanoBRET)
T4 sequence (P41145 whole entry): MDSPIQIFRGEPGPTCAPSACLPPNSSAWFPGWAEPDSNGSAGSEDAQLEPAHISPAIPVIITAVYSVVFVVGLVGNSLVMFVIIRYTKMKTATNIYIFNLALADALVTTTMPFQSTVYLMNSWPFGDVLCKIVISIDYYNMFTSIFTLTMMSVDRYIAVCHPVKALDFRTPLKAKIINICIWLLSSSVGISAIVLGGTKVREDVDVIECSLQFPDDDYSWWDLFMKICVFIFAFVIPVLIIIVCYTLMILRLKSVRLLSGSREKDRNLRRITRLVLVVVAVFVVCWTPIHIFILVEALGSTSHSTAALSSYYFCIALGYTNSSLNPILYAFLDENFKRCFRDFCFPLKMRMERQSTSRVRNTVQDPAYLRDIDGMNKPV
Experimental: as §1, §2

[5] = molecular target: T5, PTAFR (Homo sapiens, UniProt P25105); assay: NanoBRET screen HiBiT-PTAFR in HEK293
T5 construct: purchased Promega (in-house HiBiT-GPCR construct library, NanoBRET)
T5 sequence (P25105 whole entry): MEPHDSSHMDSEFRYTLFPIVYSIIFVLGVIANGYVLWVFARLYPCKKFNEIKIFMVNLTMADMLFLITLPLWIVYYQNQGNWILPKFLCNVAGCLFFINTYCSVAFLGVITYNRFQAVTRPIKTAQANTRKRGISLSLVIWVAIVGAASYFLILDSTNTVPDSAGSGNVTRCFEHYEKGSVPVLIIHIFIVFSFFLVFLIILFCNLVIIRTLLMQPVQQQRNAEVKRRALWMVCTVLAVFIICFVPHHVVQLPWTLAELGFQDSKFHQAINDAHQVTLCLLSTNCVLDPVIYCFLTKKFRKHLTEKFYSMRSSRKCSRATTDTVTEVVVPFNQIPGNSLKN
Experimental: as §1, §2

[6] = tracer at 1μM, listed as amitriptyline-b-2-NB590
[7] = tracer at 0.1μM, listed as amitriptyline-b-2-NB590

T1 sequence (P08588 whole entry): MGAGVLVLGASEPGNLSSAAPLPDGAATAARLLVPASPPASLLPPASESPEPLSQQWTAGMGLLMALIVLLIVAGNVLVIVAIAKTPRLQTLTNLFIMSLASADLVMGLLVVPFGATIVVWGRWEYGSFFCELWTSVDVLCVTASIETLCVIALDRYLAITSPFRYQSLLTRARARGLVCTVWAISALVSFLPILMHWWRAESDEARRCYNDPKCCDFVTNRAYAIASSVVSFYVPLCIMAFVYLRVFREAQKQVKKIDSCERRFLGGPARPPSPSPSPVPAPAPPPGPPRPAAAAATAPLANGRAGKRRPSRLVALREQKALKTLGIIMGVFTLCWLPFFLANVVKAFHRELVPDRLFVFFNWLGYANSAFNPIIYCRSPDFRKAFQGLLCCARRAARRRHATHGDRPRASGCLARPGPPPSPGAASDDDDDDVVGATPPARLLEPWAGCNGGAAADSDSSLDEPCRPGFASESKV

Structure (SMILES): CCOC(=O)c1cc(C#N)c(N2CCC(C(=O)NS(=O)(=O)Cc3ccccc3/C=C/C(=O)NCCNC(=O)CCc3ccc4n3[B-](F)(F)[N+]3=C(c5ccc[nH]5)C=CC3=C4)CC2)nc1C [AZD1283-1-NB590]
- NanoBRET Fold Response ([1]; ADRB1, 0.1μM): 1.05
- NanoBRET Fold Response ([1]; ADRB1, 1μM): 1.09
- NanoBRET Fold Response ([2]; AVPR1B, 0.1μM): 0.97
- NanoBRET Fold Response ([2]; AVPR1B, 1μM): 1.05
- NanoBRET Fold Response ([3]; NMUR1, 0.1μM): 1.05
- NanoBRET Fold Response ([3]; NMUR1, 1μM): 1.04
- NanoBRET Fold Response ([4]; OPRK1, 0.1μM): 0.98
- NanoBRET Fold Response ([4]; OPRK1, 1μM): 0.99
- NanoBRET Fold Response ([5]; PTAFR, 0.1μM): 1.01
- NanoBRET Fold Response ([5]; PTAFR, 1μM): 1.17

Structure (SMILES): N#CN/C(=N\CCNC(=O)c1ccc(N)cc1)NCCCOc1cccc(CN2CCCCC2)c1 [Aminopotentidine (unmodified)]
- NanoBRET Fold Response ([1]; ADRB1, other tracers/Aminopotentidine (unmodified), 0.1μM): 1.01
- NanoBRET Fold Response ([1]; ADRB1, other tracers/Aminopotentidine (unmodified), 1μM): 1.07
- NanoBRET Fold Response ([4]; OPRK1, other tracers/Aminopotentidine (unmodified), 0.1μM): 1.75
- NanoBRET Fold Response ([4]; OPRK1, other tracers/Aminopotentidine (unmodified), 1μM): 1.55

Structure (SMILES): N#CN=C(NCCCOc1cccc(CN2CCCCC2)c1)NCCNC(=O)CCOCCOCCOCCOCCNC(=O)CCc1ccc2n1[B-](F)(F)[N+]1=C(c3ccc[nH]3)C=CC1=C2 [Aminopotentidine-2-NB590]
- NanoBRET Fold Response ([1]; ADRB1, tracer 0.1μM): 1.01
- NanoBRET Fold Response ([1]; ADRB1, tracer 1μM): 0.99
- NanoBRET Fold Response ([2]; AVPR1B, tracer 0.1μM): 1.09
- NanoBRET Fold Response ([2]; AVPR1B, tracer 1μM): 1.04
- NanoBRET Fold Response ([3]; NMUR1, tracer 0.1μM): 1.05
- NanoBRET Fold Response ([3]; NMUR1, tracer 1μM): 0.98
- NanoBRET Fold Response ([4]; OPRK1, tracer 0.1μM): 1.14
- NanoBRET Fold Response ([4]; OPRK1, tracer 1μM): 1.07
- NanoBRET Fold Response ([5]; PTAFR, tracer 0.1μM): 0.95
- NanoBRET Fold Response ([5]; PTAFR, tracer 1μM): 1.02

Structure (SMILES): CN(C)CCC=C1c2ccccc2CCc2ccc(C(=O)NCCNC(=O)CCOCCOCCOCCOCCNC(=O)CCc3ccc4n3[B-](F)(F)[N+]3=C(c5ccc[nH]5)C=CC3=C4)cc21 [Amitriptyline-a-2-NB590]
- NanoBRET Fold Response ([1]; tracer at 0.1μM): 1.05
- NanoBRET Fold Response ([1]; tracer at 1μM): 1.18
- NanoBRET Fold Response ([2]; tracer at 0.1μM): 0.94
- NanoBRET Fold Response ([2]; tracer at 1μM): 1.03
- NanoBRET Fold Response ([3]; tracer at 0.1μM): 1.01
- NanoBRET Fold Response ([3]; tracer at 1μM): 0.99
- NanoBRET Fold Response ([4]; tracer at 0.1μM): 1.04
- NanoBRET Fold Response ([4]; tracer at 1μM): 1.02
- NanoBRET Fold Response ([5]; tracer at 0.1μM): 1.10
- NanoBRET Fold Response ([5]; tracer at 1μM): 0.90

Structure (SMILES): CN(C)CCC=C1c2ccccc2CCc2ccc(C(=O)NCCNC(=O)CCOCCOCCOCCOCCNC(=O)CCc3ccc4n3[B-](F)(F)[N+]3=C(c5ccc[nH]5)C=CC3=C4)cc21 [Amitriptyline-b-2-NB590]
- NanoBRET Fold Response [1, 6]: 0.96
- NanoBRET Fold Response [2, 7]: 0.84
- NanoBRET Fold Response [2, 6]: 1.18
- NanoBRET Fold Response [3, 7]: 1.14
- NanoBRET Fold Response [3, 6]: 1.10
- NanoBRET Fold Response [4, 7]: 1.23
- NanoBRET Fold Response [4, 6]: 1.23
- NanoBRET Fold Response [5, 7]: 0.92
- NanoBRET Fold Response [5, 6]: 1.02
